# From ChEMBL document CHEMBL1157156, “A novel sesquiterpene lactone from Centaurea pullata: structure elucidation, antimicrobial activity, and prediction of pharmacokinetic properties” (2008)
# How the values were obtained:
# Bacillus subtilis = test: Antimicrobial activity against Bacillus subtilis ATCC 10907 by serial dilution technique; format: functional
# Micrococcus luteus = test: Antimicrobial activity against Micrococcus flavus ATCC 10240 by serial dilution technique; format: functional
# [1] = system: Staphylococcus epidermidis; test: Antimicrobial activity against Staphylococcus epidermidis ATCC 12228 by serial dilution technique; format: functional
# Escherichia coli = test: Antimicrobial activity against Escherichia coli ATCC 35210 by serial dilution technique; format: functional
# Pseudomonas tolaasii = test: Antimicrobial activity against Pseudomonas tolaasii by serial dilution technique; format: functional
# Salmonella enteritidis = test: Antimicrobial activity against Salmonella enteritidis ATCC 13076 by serial dilution technique; format: functional, Salmonella enterica subsp. enterica serovar Enteritidis; conditions: Salmonella enterica
# Alternaria alternata = test: Antimicrobial activity against Alternaria alternata DMS2006 by serial dilution technique; format: functional
# Aspergillus flavus = test: Antimicrobial activity against Aspergillus flavus ATCC 9643 by serial dilution technique; format: functional
# Aspergillus niger = test: Antimicrobial activity against Aspergillus niger ATCC 6275 by serial dilution technique; format: functional
# Aspergillus ochraceus = test: Antimicrobial activity against Aspergillus ochraceus ATCC 12066 by serial dilution technique; format: functional
# Fusarium tricinctum = test: Antimicrobial activity against Fusarium tricinctum by serial dilution technique; format: functional
# Talaromyces funiculosus = test: Antimicrobial activity against Penicillium funiculosum ATCC 36839 by serial dilution technique; format: functional
# Penicillium ochrochloron = test: Antimicrobial activity against Penicillium ochrochloron ATCC 9112 by serial dilution technique; format: functional
# Trichoderma viride = test: Antimicrobial activity against Trichoderma viride IAM5061 by serial dilution technique; format: functional
SMILES,MBC (Bacillus subtilis),MIC (Bacillus subtilis),MBC (Micrococcus luteus),MIC (Micrococcus luteus),MBC [1],MIC [1],MIC (Escherichia coli),MBC (Pseudomonas tolaasii),MIC (Pseudomonas tolaasii),MBC (Salmonella enteritidis),MIC (Salmonella enteritidis),MFC (Alternaria alternata),MIC (Alternaria alternata),MFC (Aspergillus flavus),MIC (Aspergillus flavus),MFC (Aspergillus niger),MIC (Aspergillus niger),MFC (Aspergillus ochraceus),MIC (Aspergillus ochraceus),MFC (Fusarium tricinctum),also measured
C/C1=C\CC/C(CO)=C/[C@H]2OC(=O)[C@@H](C)[C@@H]2[C@@H](O)C1,1.1 µM,0.8 µM,1.1 µM,1.1 µM,1.9 µM,1.5 µM,1.5 µM,0.8 µM,0.8 µM,1.5 µM,1.1 µM,0.7 µM,0.7 µM,0.7 µM,0.3 µM,0.7 µM,0.7 µM,0.7 µM,0.7 µM,0.7 µM,MIC (Fusarium tricinctum): 0.7 µM; MFC (Talaromyces funiculosus): 0.7 µM; MIC (Talaromyces funiculosus): 0.7 µM; MFC (Penicillium ochrochloron): 0.7 µM; MIC (Penicillium ochrochloron): 0.7 µM; MFC (Trichoderma viride): 0.7 µM; MIC (Trichoderma viride): 0.3 µM
C=C[C@]1(C)C[C@H](O)[C@@H]2[C@H](OC(=O)[C@H]2C)[C@H]1C(=C)CO,2.3 µM,1.5 µM,2.3 µM,2.3 µM,2.3 µM,2.3 µM,2.3 µM,2.3 µM,2.3 µM,2.3 µM,2.3 µM,0.7 µM,0.7 µM,0.7 µM,0.7 µM,0.7 µM,0.7 µM,0.7 µM,0.7 µM,0.7 µM,MIC (Fusarium tricinctum): 0.7 µM; MFC (Talaromyces funiculosus): 0.7 µM; MIC (Talaromyces funiculosus): 0.7 µM; MFC (Penicillium ochrochloron): 0.7 µM; MIC (Penicillium ochrochloron): 0.7 µM; MFC (Trichoderma viride): 0.7 µM; MIC (Trichoderma viride): 0.3 µM
C[C@@H]1C(=O)O[C@@H]2C3[C@H](C=O)CCC[C@]3(C)C[C@H](O)[C@@H]12 (some centres not stated),0.5 µM,0.3 µM,0.7 µM,0.5 µM,1.1 µM,0.7 µM,0.5 µM,1.1 µM,0.7 µM,0.5 µM,0.3 µM,0.2 µM,0.2 µM,0.4 µM,0.2 µM,0.6 µM,0.6 µM,0.4 µM,0.4 µM,0.4 µM,MIC (Fusarium tricinctum): 0.2 µM; MFC (Talaromyces funiculosus): 0.6 µM; MIC (Talaromyces funiculosus): 0.4 µM; MFC (Penicillium ochrochloron): 0.4 µM; MIC (Penicillium ochrochloron): 0.4 µM; MFC (Trichoderma viride): 0.4 µM; MIC (Trichoderma viride): 0.4 µM
C=C[C@]1(C)C[C@H](OC(=O)C(=C)CCO)[C@@H]2[C@H](OC(=O)[C@H]2C)[C@H]1C(=C)CO,0.4 µM,0.2 µM,0.5 µM,0.4 µM,0.8 µM,0.5 µM,0.4 µM,0.8 µM,0.5 µM,0.4 µM,0.2 µM,0.1 µM,0.1 µM,0.2 µM,0.1 µM,0.3 µM,0.3 µM,0.2 µM,0.2 µM,0.2 µM,MIC (Fusarium tricinctum): 0.1 µM; MFC (Talaromyces funiculosus): 0.3 µM; MIC (Talaromyces funiculosus): 0.2 µM; MFC (Penicillium ochrochloron): 0.2 µM; MIC (Penicillium ochrochloron): 0.2 µM; MFC (Trichoderma viride): 0.2 µM; MIC (Trichoderma viride): 0.2 µM
C[C@@H]1C(=O)O[C@H]2[C@H]1[C@@H](O)C[C@]1(C)[C@@H]2[C@@H](C=O)CC[C@H]1O,0.7 µM,0.7 µM,0.7 µM,0.7 µM,1.4 µM,1 µM,1 µM,0.7 µM,0.7 µM,1 µM,0.7 µM,0.3 µM,0.3 µM,0.3 µM,0.3 µM,0.3 µM,0.3 µM,0.3 µM,0.3 µM,0.3 µM,MIC (Fusarium tricinctum): 0.3 µM; MFC (Talaromyces funiculosus): 0.7 µM; MIC (Talaromyces funiculosus): 0.7 µM; MFC (Penicillium ochrochloron): 0.7 µM; MIC (Penicillium ochrochloron): 0.3 µM; MFC (Trichoderma viride): 0.7 µM; MIC (Trichoderma viride): 0.7 µM
Clc1ccc(COC(Cn2ccnc2)c2ccc(Cl)cc2Cl)c(Cl)c1 (configuration not stated) [MICONAZOLE],,,,,,,,,,,,2 µM,0.4 µM,4 µM,1 µM,8 µM,3 µM,8 µM,3 µM,2 µM,MIC (Fusarium tricinctum): 0.4 µM; MFC (Talaromyces funiculosus): 10 µM; MIC (Talaromyces funiculosus): 4 µM; MFC (Penicillium ochrochloron): 10 µM; MIC (Penicillium ochrochloron): 4 µM; MFC (Trichoderma viride): 4 µM; MIC (Trichoderma viride): 4 µM
CN[C@@H]1[C@H](O[C@H]2[C@H](O[C@H]3[C@H](O)[C@@H](O)[C@H](N=C(N)N)[C@@H](O)[C@@H]3N=C(N)N)O[C@@H](C)[C@]2(O)C=O)O[C@@H](CO)[C@H](O)[C@H]1O [STREPTOMYCIN],0.8 µM,0.8 µM,1.6 µM,0.8 µM,1.6 µM,1.6 µM,0.8 µM,1.6 µM,1.6 µM,1.6 µM,1.6 µM,,,,,,,,,,
